Experimental data reported in the NIST ThermoML archive (doi:10.1016/j.jct.2017.03.026).
“And” between values parts separate entries of the source, which are not always exact repeats. Identical values can stand only once. Numbers after ± are expanded uncertainties.

Assay: molar heat capacity at constant pressure
Conditions: 101.33 kPa, Crystal, Small (less than 1 g) adiabatic calorimetry

O.O.O.O.O.O=S(=O)([O-])[O-].[Cu+2] [copper(II) sulfate pentahydrate]
Conditions	molar heat capacity at constant pressure
147.86 K	165.08 ± 0.96 J/K/mol
148.14 K	163.74 ± 0.7 J/K/mol
148.35 K	165.5 ± 0.96 J/K/mol
148.79 K	165.6 ± 0.96 J/K/mol
148.94 K	165.94 ± 0.96 J/K/mol
149.18 K	164.71 ± 0.7 J/K/mol
149.89 K	165.56 ± 0.7 J/K/mol
150 K	165.6 ± 0.7 J/K/mol
150.02 K	166.77 ± 0.96 J/K/mol
150.23 K	165.8 ± 0.69 J/K/mol
150.52 K	166.26 ± 0.7 J/K/mol
150.77 K	167.63 ± 0.96 J/K/mol
151.09 K	168 ± 0.96 J/K/mol
151.27 K	167.02 ± 0.7 J/K/mol
151.52 K	168.7 ± 0.97 J/K/mol
151.97 K	167.63 ± 0.7 J/K/mol
152.1 K	169 ± 0.97 J/K/mol
152.17 K	169.13 ± 0.97 J/K/mol
152.32 K	167.82 ± 0.7 J/K/mol
153.24 K	170.02 ± 0.97 J/K/mol
153.38 K	169.02 ± 0.71 J/K/mol
153.43 K	170.11 ± 0.97 J/K/mol
153.64 K	169.31 ± 0.71 J/K/mol
154.06 K	169.63 ± 0.71 J/K/mol
154.32 K	171.06 ± 0.98 J/K/mol
154.42 K	169.98 ± 0.71 J/K/mol
154.7 K	171.74 ± 0.98 J/K/mol
154.77 K	171.25 ± 0.98 J/K/mol
155.4 K	172.12 ± 0.98 J/K/mol
155.47 K	171.07 ± 0.71 J/K/mol
156.1 K	172.57 ± 0.99 J/K/mol
156.15 K	171.68 ± 0.71 J/K/mol
156.48 K	173.12 ± 0.98 J/K/mol
156.52 K	172.03 ± 0.72 J/K/mol
156.76 K	172.32 ± 0.72 J/K/mol
157.44 K	173.97 ± 0.98 J/K/mol
157.56 K	174.08 ± 0.98 J/K/mol
157.57 K	172.98 ± 0.72 J/K/mol
157.89 K	174.79 ± 0.98 J/K/mol
158.24 K	173.62 ± 0.72 J/K/mol
158.61 K	173.88 ± 0.72 J/K/mol
158.64 K	175.11 ± 0.99 J/K/mol
158.78 K	175.17 ± 0.99 J/K/mol
159.66 K	174.82 ± 0.73 J/K/mol
159.72 K	176.1 ± 0.99 J/K/mol
159.88 K	175.23 ± 0.73 J/K/mol
160 K	175.2 ± 0.7 J/K/mol
160.11 K	176.48 ± 0.99 J/K/mol
160.32 K	175.83 ± 0.73 J/K/mol
160.71 K	175.82 ± 0.73 J/K/mol
160.81 K	177.05 ± 1 J/K/mol
161.09 K	177.82 ± 1 J/K/mol
161.48 K	177.68 ± 1 J/K/mol
161.75 K	176.91 ± 0.72 J/K/mol
161.89 K	178.2 ± 1 J/K/mol
162.41 K	177.56 ± 0.73 J/K/mol
162.8 K	177.97 ± 0.73 J/K/mol
162.82 K	178.9 ± 1 J/K/mol
163 K	179.4 ± 1 J/K/mol
163.01 K	178.38 ± 0.73 J/K/mol
163.85 K	178.9 ± 0.73 J/K/mol
164.09 K	180.26 ± 1 J/K/mol
164.16 K	180.28 ± 1 J/K/mol
164.29 K	180.86 ± 1 J/K/mol
164.49 K	179.69 ± 0.73 J/K/mol
164.89 K	179.88 ± 0.73 J/K/mol
165.17 K	181.13 ± 1 J/K/mol
165.49 K	181.52 ± 1 J/K/mol
165.94 K	180.9 ± 0.74 J/K/mol
166.13 K	181.26 ± 0.74 J/K/mol
166.26 K	182.01 ± 1 J/K/mol
166.58 K	181.3 ± 0.74 J/K/mol
166.83 K	182.73 ± 1 J/K/mol
166.99 K	181.72 ± 0.74 J/K/mol
167.35 K	183.04 ± 1 J/K/mol
167.49 K	183.69 ± 1 J/K/mol
168.03 K	182.66 ± 0.74 J/K/mol
168.17 K	183.76 ± 1 J/K/mol
168.44 K	184.44 ± 1 J/K/mol
168.67 K	183.22 ± 0.75 J/K/mol
169.08 K	183.64 ± 0.75 J/K/mol
169.26 K	184.18 ± 0.75 J/K/mol
169.5 K	184.87 ± 1 J/K/mol
169.53 K	185.06 ± 1 J/K/mol
170 K	184.5 ± 0.7 J/K/mol
170.13 K	184.56 ± 0.75 J/K/mol
170.62 K	186.24 ± 1 J/K/mol
170.71 K	186.66 ± 1 J/K/mol
170.76 K	185.15 ± 0.75 J/K/mol
170.84 K	186.28 ± 1 J/K/mol
171.17 K	185.59 ± 0.75 J/K/mol
171.71 K	187.47 ± 1 J/K/mol
172.18 K	187.68 ± 1 J/K/mol
172.38 K	187.03 ± 0.76 J/K/mol
172.8 K	188.14 ± 1 J/K/mol
172.85 K	187.26 ± 0.76 J/K/mol
173.51 K	188.79 ± 1 J/K/mol
173.89 K	188.9 ± 1 J/K/mol
173.93 K	189.4 ± 1 J/K/mol
174.85 K	189.91 ± 1 J/K/mol
174.95 K	188.94 ± 0.76 J/K/mol
174.98 K	190 ± 1 J/K/mol
175.51 K	189.78 ± 0.76 J/K/mol
176.07 K	191.28 ± 1 J/K/mol
176.18 K	191.23 ± 1 J/K/mol
177.04 K	190.61 ± 0.76 J/K/mol
177.15 K	192.53 ± 1 J/K/mol
177.16 K	191.97 ± 1 J/K/mol
177.52 K	192.4 ± 1 J/K/mol
178.25 K	192.97 ± 1 J/K/mol
178.63 K	192.28 ± 0.77 J/K/mol
178.85 K	193.69 ± 1 J/K/mol
179.13 K	192.37 ± 0.77 J/K/mol
179.35 K	194.03 ± 1 J/K/mol
180 K	193.2 ± 0.8 J/K/mol
180.19 K	194.75 ± 1 J/K/mol
180.42 K	195.75 ± 1 J/K/mol
180.47 K	195.63 ± 1 J/K/mol
181.21 K	194.29 ± 0.77 J/K/mol
181.52 K	196.05 ± 1 J/K/mol
181.57 K	196.1 ± 1 J/K/mol
181.75 K	194.99 ± 0.78 J/K/mol
182.67 K	197.05 ± 1.1 J/K/mol
182.89 K	197.45 ± 1.1 J/K/mol
183.3 K	195.97 ± 0.78 J/K/mol
183.65 K	198.96 ± 1.1 J/K/mol
183.77 K	198.41 ± 1.1 J/K/mol
184.23 K	198.67 ± 1.1 J/K/mol
184.86 K	199.51 ± 1.1 J/K/mol
184.87 K	197.91 ± 0.79 J/K/mol
185.39 K	197.77 ± 0.79 J/K/mol
185.55 K	200.51 ± 1.1 J/K/mol
185.95 K	200.62 ± 1.1 J/K/mol
186.89 K	201.62 ± 1.1 J/K/mol and 202.38 ± 1.1 J/K/mol
187.05 K	201.82 ± 1.1 J/K/mol
187.48 K	199.99 ± 0.79 J/K/mol
187.99 K	200.27 ± 0.79 J/K/mol
188.14 K	203.75 ± 1.1 J/K/mol
188.22 K	203.53 ± 1.1 J/K/mol
189.25 K	204.46 ± 1.1 J/K/mol
189.56 K	204.62 ± 1.1 J/K/mol
189.57 K	201.44 ± 0.79 J/K/mol
190 K	201.9 ± 0.8 J/K/mol
190.12 K	206.13 ± 1.1 J/K/mol
190.35 K	205.41 ± 1.1 J/K/mol
190.88 K	206.97 ± 1.1 J/K/mol
191.11 K	202.91 ± 0.79 J/K/mol
191.45 K	206.67 ± 1.1 J/K/mol
191.66 K	203.21 ± 0.8 J/K/mol
192.21 K	207.95 ± 1.1 J/K/mol
192.55 K	207.97 ± 1.1 J/K/mol
193.37 K	209.23 ± 1.1 J/K/mol
193.55 K	208.35 ± 1.1 J/K/mol
193.65 K	208.94 ± 1.1 J/K/mol
193.74 K	205.3 ± 0.8 J/K/mol
194.23 K	206.14 ± 0.8 J/K/mol
194.75 K	209.89 ± 1.1 J/K/mol
194.87 K	210.1 ± 1.1 J/K/mol
195.83 K	207.12 ± 0.81 J/K/mol
